Common to all, as to assay type: functional, A2780 ADR
Experiment [1] is described as follows: Reversal of multidrug resistance in human 2780AD cells assessed as [3H]vincristine accumulation at 0.1 ug/mL after 2 hrs relative to control.
Experiment [2] can be described thus: Reversal of multidrug resistance in human 2780AD cells assessed as [3H]vincristine accumulation at 1 ug/mL after 2 hrs relative to control.
Experiment [3] can be described thus: Reversal of multidrug resistance in human 2780AD cells assessed as [3H]vincristine accumulation at 10 ug/mL after 2 hrs relative to control.
Experiment [4] can be described thus: Reversal of multidrug resistance in human 2780AD cells assessed as [3H]vincristine accumulation at 0.1 ug/mL after 2 hrs relative to verapamil.
A short description of experiment [5]: Reversal of multidrug resistance in human 2780AD cells assessed as [3H]vincristine accumulation at 1 ug/mL after 2 hrs relative to verapamil.
Experiment [6] is described as follows: Reversal of multidrug resistance in human 2780AD cells assessed as [3H]vincristine accumulation at 10 ug/mL after 2 hrs relative to verapamil.

With `C=C1[C@@H](OC(C)=O)CC[C@]2(C)[C@@H]1C[C@@H]1C[C@H](OC(C)=O)C(C)=C([C@@H](OC(C)=O)[C@@H]2OC(C)=O)C1(C)C` [TAXUSIN], the Activity came to 106% in experiment [1]; 228% in experiment [2]; 461% in experiment [3]; 102% in experiment [4]; 157% in experiment [5]; 136% in experiment [6].
Regarding `COc1ccc(CCN(C)CCCC(C#N)(c2ccc(OC)c(OC)c2)C(C)C)cc1OC` (centres undefined) [VERAPAMIL], the Activity in experiment [1] was found to be 104%; in experiment [2], 145%; in experiment [3], 352%.
